± gives the expanded uncertainty stated by the source.
Legend:
[1] = mn = molality of the nth substance listed, in mol/kg; details: 100 kPa, Liquid, Capillary tube (Ostwald / Ubbelohde) method
[2] = 100 kPa, Liquid, Capillary tube (Ostwald / Ubbelohde) method

NCC(=O)O [2-aminoacetic acid] + O
viscosity [mPa·s], [1]
Details | m1 = 0.05 | m1 = 0.15 | m1 = 0.25 | m1 = 0.35 | m1 = 0.5
288.15 K | 1.146 ± 0.021 | 1.16 ± 0.033 | 1.175 ± 0.022 | 1.19 ± 0.022 | 1.213 ± 0.022
298.15 K | 0.896 ± 0.021 | 0.909 ± 0.021 | 0.921 ± 0.021 | 0.934 ± 0.021 | 0.953 ± 0.021
308.15 K | 0.723 ± 0.021 | 0.735 ± 0.021 | 0.745 ± 0.021 | 0.755 ± 0.021 | 0.77 ± 0.021
318.15 K | 0.603 ± 0.02 | 0.609 ± 0.021 | 0.618 ± 0.022 | 0.626 ± 0.021 | 0.639 ± 0.021

C[C@@H](O)[C@@H](O)[C@H](O)[C@H](O)C=O [6-deoxy-D-mannose] + O
viscosity [mPa·s], [1]
Details | m1 = 0.0395 | m1 = 0.0753 | m1 = 0.1036 | m1 = 0.1173 | m1 = 0.1403
288.15 K | 1.164 ± 0.021 | 1.183 ± 0.022 | 1.2 ± 0.022 | 1.208 ± 0.022 | 1.22 ± 0.022
298.15 K | 0.91 ± 0.021 | 0.922 ± 0.021 | 0.933 ± 0.021 | 0.945 ± 0.021 | 0.951 ± 0.021
308.15 K | 0.732 ± 0.021 | 0.744 ± 0.021 | 0.753 ± 0.021 | 0.759 ± 0.021 | 0.766 ± 0.021
318.15 K | 0.607 ± 0.02 | 0.616 ± 0.02 | 0.623 ± 0.02 | 0.626 ± 0.021 | 0.633 ± 0.021

OC[C@H]1O[C@@H](O[C@H]2[C@H](O)[C@@H](O)[C@H](O)O[C@@H]2CO)[C@H](O)[C@@H](O)[C@@H]1O [D-cellobiose] + O
viscosity [mPa·s], [1]
Details | m1 = 0.0529 | m1 = 0.0639 | m1 = 0.0903 | m1 = 0.1292 | m1 = 0.1479 | m1 = 0.1603
288.15 K | 1.193 ± 0.022 | 1.203 ± 0.022 | 1.231 ± 0.022 | 1.269 ± 0.022 | 1.286 ± 0.022 | 1.3 ± 0.023
298.15 K | 0.928 ± 0.021 | 0.941 ± 0.021 | 0.961 ± 0.021 | 0.99 ± 0.022 | 1.001 ± 0.022 | 1.011 ± 0.024
308.15 K | 0.748 ± 0.021 | 0.757 ± 0.021 | 0.771 ± 0.021 | 0.796 ± 0.021 | 0.807 ± 0.021 | 0.813 ± 0.022
318.15 K | 0.621 ± 0.021 | 0.625 ± 0.021 | 0.64 ± 0.021 | 0.657 ± 0.021 | 0.664 ± 0.021 | 0.67 ± 0.021

O=C[C@H](O)[C@@H](O)[C@H](O)[C@H](O)CO [D-glucose] + O
viscosity [mPa·s], [1]
Details | m1 = 0.0523 | m1 = 0.0745 | m1 = 0.0885 | m1 = 0.1034 | m1 = 0.1197 | m1 = 0.142
288.15 K | – | 1.183 ± 0.022 | 1.185 ± 0.022 | 1.192 ± 0.022 | 1.205 ± 0.022 | 1.219 ± 0.022
298.15 K | 0.911 ± 0.021 | 0.921 ± 0.021 | 0.926 ± 0.021 | 0.933 ± 0.021 | 0.938 ± 0.021 | 0.948 ± 0.022
308.15 K | 0.735 ± 0.021 | 0.743 ± 0.021 | 0.747 ± 0.021 | 0.751 ± 0.021 | 0.756 ± 0.021 | 0.762 ± 0.021
318.15 K | 0.609 ± 0.02 | 0.614 ± 0.02 | 0.618 ± 0.02 | 0.621 ± 0.02 | 0.625 ± 0.021 | 0.63 ± 0.021

OC[C@@H](O)[C@@H](O)[C@H](O)[C@H](O)CO [D-mannitol] + O
viscosity [mPa·s], [1]
Details | m1 = 0.0578 | m1 = 0.0701 | m1 = 0.0837 | m1 = 0.12 | m1 = 0.1409 | m1 = 0.1659 | m1 = 0.1943
288.15 K | 1.181 ± 0.022 | 1.19 ± 0.022 | 1.199 ± 0.022 | 1.224 ± 0.022 | 1.236 ± 0.022 | 1.254 ± 0.022 | 1.278 ± 0.022
298.15 K | 0.919 ± 0.021 | 0.928 ± 0.021 | 0.935 ± 0.021 | 0.949 ± 0.021 | 0.959 ± 0.021 | 0.974 ± 0.021 | 0.986 ± 0.022
308.15 K | 0.741 ± 0.021 | 0.746 ± 0.021 | 0.753 ± 0.021 | 0.763 ± 0.021 | 0.771 ± 0.021 | 0.779 ± 0.021 | 0.791 ± 0.021
318.15 K | 0.611 ± 0.02 | 0.617 ± 0.02 | 0.62 ± 0.02 | 0.629 ± 0.021 | 0.636 ± 0.021 | 0.644 ± 0.021 | 0.651 ± 0.021

O=C[C@@H](O)[C@@H](O)[C@H](O)[C@H](O)CO [D-mannose] + O
viscosity [mPa·s], [1]
Details | m1 = 0.0607 | m1 = 0.0751 | m1 = 0.0977 | m1 = 0.1215 | m1 = 0.134 | m1 = 0.1525 | m1 = 0.1822
288.15 K | – | 1.183 ± 0.022 | 1.195 ± 0.022 | 1.207 ± 0.022 | 1.216 ± 0.022 | 1.224 ± 0.022 | 1.243 ± 0.022
298.15 K | – | 0.921 ± 0.021 | 0.931 ± 0.021 | 0.94 ± 0.021 | 0.945 ± 0.021 | 0.954 ± 0.021 | 0.966 ± 0.022
308.15 K | 0.739 ± 0.021 | 0.744 ± 0.021 | 0.749 ± 0.021 | 0.757 ± 0.021 | 0.76 ± 0.021 | 0.767 ± 0.021 | 0.776 ± 0.021
318.15 K | 0.61 ± 0.02 | 0.614 ± 0.02 | 0.62 ± 0.02 | 0.625 ± 0.021 | 0.629 ± 0.021 | 0.635 ± 0.021 | 0.64 ± 0.021

O [water]
[2]
Details | viscosity [mPa·s]
288.15 K | 1.138 ± 0.021
298.15 K | 0.89 ± 0.021
308.15 K | 0.719 ± 0.02
318.15 K | 0.596 ± 0.02

CO[C@H]1O[C@H](CO)[C@@H](O)[C@H](O)[C@@H]1O [α-methyl mannopyranoside] + O
viscosity [mPa·s], [1]
Details | m1 = 0.0569 | m1 = 0.0853 | m1 = 0.1142 | m1 = 0.1318 | m1 = 0.1443
288.15 K | 1.172 ± 0.021 | 1.188 ± 0.022 | 1.208 ± 0.022 | 1.217 ± 0.022 | 1.229 ± 0.022
298.15 K | 0.913 ± 0.021 | 0.925 ± 0.021 | 0.942 ± 0.021 | 0.95 ± 0.021 | 0.96 ± 0.023
308.15 K | 0.742 ± 0.021 | 0.75 ± 0.021 | 0.756 ± 0.021 | 0.765 ± 0.021 | 0.77 ± 0.021
318.15 K | 0.61 ± 0.02 | 0.619 ± 0.02 | 0.625 ± 0.021 | 0.633 ± 0.021 | 0.636 ± 0.021

— the NIST ThermoML archive (doi:10.1016/j.jct.2016.04.006)
